According to USRE50663E1, “Heterocycle derivatives as pesticides” (Bayer Aktiengesellschaft, priority 2017, dated 2025):

Experiments:
Format in all cases: in vivo
[1] = test system: greenhouse red spider mite (Tetranychus urticae); test: Tetranychus urticae spray test, OP-resistant; conditions: 20 g/ha, after 6 days, bean leaf discs
Experimental: (§1) Solvent: 78.0 parts by weight of acetone • • 1.5 parts by weight of dimethylformamide
(§2) Emulsifier: alkylaryl polyglycol ether
(§3) To produce a suitable active compound formulation, 1 part by weight of active compound is dissolved with the specified parts by weight of solvent and made up to the desired concentration with water containing an emulsifier concentration of 1000 ppm. To produce further test concentrations, the formulation is diluted with emulsifier-containing water.
Discs of bean leaves (Phaseolus vulgaris) infested with all stages of the greenhouse red spider mite (Tetranychus urticae) are sprayed with an active compound formulation of the desired concentration.
After 6 days, the efficacy in % is determined. 100% means that all the spider mites have been killed; 0% means that no spider mites have been killed.

[2] = test system: adult cat fleas (Ctenocephalides felis); test: Ctenocephalides felis oral test; conditions: 48 h, 100 ppm in citrated cattle blood, after 2 days, read-out: efficacy (kill)
Experimental: Solvent: dimethyl sulfoxide
To produce a suitable active compound formulation, 10 mg of active compound are mixed with 0.5 ml of dimethyl sulfoxide. Dilution with citrated cattle blood gives the desired concentration.
About 20 unfed adult cat fleas (Ctenocephalides felis) are placed into a chamber which is closed at the top and bottom with gauze. A metal cylinder whose bottom end is closed with parafilm is placed onto the chamber. The cylinder contains the blood/active compound formulation, which can be imbibed by the fleas through the parafilm membrane.
After 2 days, the kill in % is determined. 100% means that all of the fleas have been killed; 0% means that none of the fleas have been killed.

[3] = test system: green peach aphid (Myzus persicae); test: Myzus persicae spray test; conditions: foliar, 120 h, 100 g/ha, after 5 days, Chinese cabbage leaf discs, read-out: efficacy
Experimental: Solvent: 78 parts by weight of acetone • • 1.5 parts by weight of dimethylformamide
as §2, §3
Discs of Chinese cabbage leaves (Brassica pekinensis) infested by all stages of the green peach aphid (Myzus persicae) are sprayed with an active compound formulation of the desired concentration.
After 5 days, the efficacy in % is determined. 100% means that all the aphids have been killed; 0% means that no aphids have been killed.

[4] = test system: caterpillars of the fall armyworm (Spodoptera frugiperda); test: Spodoptera frugiperda spray test; conditions: foliar, 168 h, 100 g/ha, after 7 days, maize leaf discs, read-out: efficacy
Experimental: as §1, §2, §3
Leaf discs of maize (Zea mays) are sprayed with an active compound formulation of the desired concentration and, after drying, populated with caterpillars of the fall armyworm (Spodoptera frugiperda).
After 7 days, the efficacy in % is determined. 100% means that all the caterpillars have been killed; 0% means that no caterpillar has been killed.

[5] = test system: larvae of the mustard beetle (Phaedon cochleariae); test: Phaedon cochleariae spray test; conditions: foliar, 168 h, 100 g/ha, after 7 days, Chinese cabbage leaf discs, read-out: efficacy
Experimental: as §1, §2, §3
Discs of Chinese cabbage leaves (Brassica pekinensis) are sprayed with an active compound formulation of the desired concentration and, after drying, populated with larvae of the mustard beetle (Phaedon cochleariae).
After 7 days, the efficacy in % is determined. 100% means that all the beetle larvae have been killed; 0% means that no beetle larvae have been killed.

[6] = test system: caterpillars of the armyworm (Spodoptera frugiperda); test: Comparative Spodoptera frugiperda spray test (SPODFR); conditions: 168 h, 7 dat, read-out: % efficacy
Experimental: (§4) Solvent: 14 parts by weight of dimethylformamide
as §2
as §3, with “water. If the addition of ammonium salts or/and penetrants is required, these are each added in a concentration of 1000 ppm to the formulation solution.” for “water.”
Cotton leaves (Gossypium hirsutum) are sprayed with an active ingredient formulation of the desired concentration and populated with caterpillars of the armyworm (Spodoptera frugiperda).
(§5) After the desired time, the kill in % is determined. 100% means that all caterpillars have been killed; 0% means that none of the caterpillars have been killed.

[7] = test system: larvae of the mustard beetle (Phaedon cochleariae); test: Comparative Phaedon cochleariae spray test (PHAECO); conditions: 168 h, 7 dat, read-out: % efficacy
Experimental: as §4, §2
as §3, with “water. If the addition of ammonium salts or/and penetrants is required, these are each added in a concentration of 1000 ppm to the formulation solution.” for “water.”
Cabbage leaves (Brassica oleracea) are sprayed with an active ingredient formulation of the desired concentration and populated with larvae of the mustard beetle (Phaedon cochleariae).
After the desired time, the kill in % is determined. 100% means that all the beetle larvae have been killed; 0% means that no beetle larvae have been killed.

[8] = test system: green peach aphid (Myzus persicae); test: Comparative Myzus persicae drench test (MYZUPE D); conditions: soil, 240 h, 10 dat, read-out: % efficacy
Experimental: (§6) Solvent: 7 parts by weight of dimethylformamide
(§7) Emulsifier: 2 parts by weight of alkylaryl polyglycol ether
(§8) To produce a suitable active ingredient formulation, 1 part by weight of active ingredient is mixed with the specified amounts of solvent and emulsifier, and the concentrate is diluted with water to the desired concentration, it being necessary to take into account the volume of soil which is drenched. It should be ensured that a concentration of 40 ppm of emulsifier in the soil is not exceeded. To produce further test concentrations, water is used for dilution.
Savoy cabbage (Brassica oleracea) in pots with soil and infested by all stages of the green peach aphid (Myzus persicae) is watered with an active ingredient formulation of the desired concentration.
After the desired period of time, the efficacy in % is determined. 100% means that all the aphids have been killed; 0% means that no aphids have been killed.

[9] = test system: caterpillars of the cotton bollworm (Heliothis armigera); test: Comparative Heliothis armigera spray test (HELIAR); conditions: Helicoverpa armigera, 168 h, 7 dat, read-out: % efficacy
Experimental: as §4, §2
as §3, with “water. If the addition of ammonium salts or/and penetrants is required, these are each added in a concentration of 1000 ppm to the formulation solution.” for “water.”
Cotton plants (Gossypium hirsutum) are sprayed with an active compound formulation of the desired concentration and, after drying, populated with caterpillars of the cotton bollworm (Heliothis armigera).
as §5

[10] = test system: caterpillars of the armyworm (Spodoptera frugiperda); test: Comparative Spodoptera frugiperda drench test (SPODFR D); conditions: soil, 336 h, 14 dat, read-out: % efficacy
Experimental: as §6, §7, §8
Maize plants (Zea mays) in pots of soil are watered with an active ingredient formulation of the desired concentration and infected with caterpillars of the armyworm (Spodoptera frugiperda).
as §5

[11] = test system: green peach aphid (Myzus persicae); test: Comparative Myzus persicae spray test (MYZUPE); conditions: 144 h, 6 dat, read-out: % efficacy
Experimental: as §4, §2
as §3, with “water. If the addition of ammonium salts or/and penetrants is required, these are each added in a concentration of 1000 ppm to the formulation solution.” for “water.”
Bell pepper plants (Capsicum annuum) severely infested with the green peach aphid (Myzus persicae) are treated by spraying with the active ingredient formulation in the desired concentration.
After the desired time, the kill in % is determined. 100% means that all the animals have been killed; 0% means that no animals have been killed.

[12] = test system: larvae of the diamondback moth (Plutella xylostella); test: Comparative Plutella xylostella spray test (PLUTMA); conditions: 168 h, 7 dat, read-out: % efficacy
Experimental: as §4, §2
as §3, with “water. If the addition of ammonium salts or/and penetrants is required, these are each added in a concentration of 1000 ppm to the formulation solution.” for “water.”
Cabbage leaves (Brassica oleracea) are sprayed with an active ingredient formulation of the desired concentration and infected with larvae of the diamondback moth (Plutella xylostella).
as §5

[13] = test system: L2 larvae of the banded cucumber beetle (Diabrotica balteata); test: Comparative Diabrotica balteata drench test (DIABBA D); conditions: soil, 192 h, 8 dat, read-out: % efficacy
Experimental: as §6, §7, §8
In each case 5 maize corns (Zea mays) are sown into pots filled with earth, and the next day the pots are watered with the active compound preparation of the desired concentration. After one day, about 25 L2 larvae of the banded cucumber beetle (Diabrotica balteata) are added.
After 8 days, the efficacy in % is determined. 100% means that all 5 plants have germinated and grown; 0% means that none of the plants has emerged.

Row | Structure (SMILES) | efficacy [1] | pest or weed control at 100 ppm [2] | pest or weed control at 100 g/ha [3] | pest or weed control at 100 g/ha [4] | pest or weed control at 100 g/ha [5] | Emax at 0.16 ppm [6] | Emax at 0.8 ppm ([7]; 0.8 ppm) | Emax at 4 ppm ([7]; 4 ppm) | Emax at 0.8 ppm [8] | Emax at 0.16 ppm [9] | Emax at 0.16 ppm [10] | Emax at 0.8 ppm [11] | Emax at 0.16 ppm [12] | Emax at 0.8 ppm ([13]; 0.8 ppm) | Emax at 4 ppm ([13]; 4 ppm)
1 | CCS(=O)(=O)c1c(-c2nc3cc(C(F)(F)F)cnc3n2C)nc2cc(C(F)C3CC3)ccn12 (stereo not drawn) [Example I-22] | 90% | 100% | 90% | 100% | 100% |  |  |  |  |  |  |  |  |  | 
2 | CCS(=O)(=O)c1c(-c2nc3cc(C(F)(F)F)cnc3n2C)nc2cc(C3CC3)ccn12 [known from WO 2016/162318, reference compound] |  |  |  |  |  | 65% | 0% | 60% | 0% | 10% | 40% | 0% | 45% | 30% | 70%
